According to patent publication US12618082B2, “Engineered muscle targeting compositions” (priority 2020, dated 2026):
“Also recorded” adds a separate entry of the source.

Legend:
[1] = target: T1, αV-containing integrin heterodimers (Mus musculus, UniProt P43406); assay: Small molecule pan-αV integrin antagonist inhibition of transduction, mouse primary myotubes; type: cell-based; settings: increasing concentrations of the antagonist; capsid named in the value
T1 construct: endogenous in cells; host or cells: mouse primary myotubes differentiated from C57BL/6J satellite cells
T1 sequence (P43406 31-1044): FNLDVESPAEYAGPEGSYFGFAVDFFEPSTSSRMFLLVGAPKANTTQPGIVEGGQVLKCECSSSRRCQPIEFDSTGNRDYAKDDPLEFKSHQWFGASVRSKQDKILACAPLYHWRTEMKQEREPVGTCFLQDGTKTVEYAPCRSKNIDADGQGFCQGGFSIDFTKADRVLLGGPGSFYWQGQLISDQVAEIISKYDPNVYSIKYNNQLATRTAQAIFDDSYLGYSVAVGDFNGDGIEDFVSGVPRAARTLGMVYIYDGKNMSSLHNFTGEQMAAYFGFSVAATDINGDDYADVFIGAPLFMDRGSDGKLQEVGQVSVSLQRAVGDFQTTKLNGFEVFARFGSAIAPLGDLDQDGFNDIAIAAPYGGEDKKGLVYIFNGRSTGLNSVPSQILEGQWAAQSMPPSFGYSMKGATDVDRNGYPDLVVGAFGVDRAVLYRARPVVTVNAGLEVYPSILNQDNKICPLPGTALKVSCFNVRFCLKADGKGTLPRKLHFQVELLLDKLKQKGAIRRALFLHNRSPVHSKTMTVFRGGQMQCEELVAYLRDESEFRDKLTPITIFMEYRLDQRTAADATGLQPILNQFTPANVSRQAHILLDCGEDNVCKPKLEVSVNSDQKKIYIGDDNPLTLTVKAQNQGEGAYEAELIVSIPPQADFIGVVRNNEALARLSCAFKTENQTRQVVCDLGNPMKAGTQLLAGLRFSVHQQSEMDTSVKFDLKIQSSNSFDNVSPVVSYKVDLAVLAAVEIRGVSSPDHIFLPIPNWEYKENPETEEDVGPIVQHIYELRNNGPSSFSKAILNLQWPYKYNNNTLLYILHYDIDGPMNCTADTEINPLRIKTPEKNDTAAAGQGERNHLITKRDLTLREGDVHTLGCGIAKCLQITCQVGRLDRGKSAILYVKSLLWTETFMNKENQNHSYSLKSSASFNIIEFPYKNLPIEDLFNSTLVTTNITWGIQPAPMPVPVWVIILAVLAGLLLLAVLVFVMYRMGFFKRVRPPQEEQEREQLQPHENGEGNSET
Procedure: (§1) Pan-alpha V integrin antagonists CWHM-12 and GLPG0187 (MedChem Express), or anti-αVβ6 antibody (ab77906, abcam) were diluted in DMEM containing 2% horse serum at the specified concentrations. Media was removed from differentiated myotubes and replaced with the diluted inhibitors, after which the myotubes were incubated on ice for 30 minutes to inhibit endocytosis. Following this incubation, AAV9-, MyoAAV-, or EMyoAAV-CK8-Nluc were added to the cells at 5E+3 vg/cell and the plates were transferred back to the tissue culture incubators. 24 hours after transduction, luciferase intensity was measured with the Nano-Glo Luciferase Assay (Promega).

[2] = target: T2, αV-containing integrin heterodimers (Homo sapiens, UniProt P06756); assay: Small molecule pan-αV integrin antagonist inhibition of transduction, human primary myotubes; type: cell-based; settings: increasing concentrations of the antagonist; capsid named in the value
T2 construct: endogenous in cells; host or cells: human primary skeletal muscle myotubes differentiated from Lonza myoblasts
T2 sequence (P06756 31-889 limits assumed): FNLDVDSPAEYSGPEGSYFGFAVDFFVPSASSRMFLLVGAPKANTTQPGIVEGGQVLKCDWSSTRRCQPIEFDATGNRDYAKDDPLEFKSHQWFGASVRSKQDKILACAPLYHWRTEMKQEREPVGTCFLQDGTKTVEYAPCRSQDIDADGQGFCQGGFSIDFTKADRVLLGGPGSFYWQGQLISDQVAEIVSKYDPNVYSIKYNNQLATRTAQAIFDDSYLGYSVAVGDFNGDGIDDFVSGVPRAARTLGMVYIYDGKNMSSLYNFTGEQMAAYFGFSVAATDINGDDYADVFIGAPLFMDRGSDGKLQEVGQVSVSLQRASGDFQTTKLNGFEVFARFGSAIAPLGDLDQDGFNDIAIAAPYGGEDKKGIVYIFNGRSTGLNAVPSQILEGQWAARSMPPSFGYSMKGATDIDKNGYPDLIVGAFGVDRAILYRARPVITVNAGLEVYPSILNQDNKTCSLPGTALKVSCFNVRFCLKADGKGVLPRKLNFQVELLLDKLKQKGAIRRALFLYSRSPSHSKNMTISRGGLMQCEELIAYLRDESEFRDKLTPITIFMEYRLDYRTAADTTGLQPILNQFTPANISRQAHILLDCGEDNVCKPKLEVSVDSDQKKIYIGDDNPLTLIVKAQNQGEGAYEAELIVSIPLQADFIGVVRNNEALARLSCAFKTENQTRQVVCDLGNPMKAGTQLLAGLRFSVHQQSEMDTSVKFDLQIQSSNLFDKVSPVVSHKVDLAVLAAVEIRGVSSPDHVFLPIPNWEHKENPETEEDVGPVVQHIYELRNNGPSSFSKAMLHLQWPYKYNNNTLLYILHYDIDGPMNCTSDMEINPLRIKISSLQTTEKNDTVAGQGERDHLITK
T2 sequence (P06756 891-1048 limits assumed): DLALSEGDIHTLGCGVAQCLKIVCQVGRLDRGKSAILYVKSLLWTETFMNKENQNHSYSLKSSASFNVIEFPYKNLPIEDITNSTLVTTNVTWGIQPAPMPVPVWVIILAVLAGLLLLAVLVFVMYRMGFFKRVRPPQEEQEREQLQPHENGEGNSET
Procedure: as §1

Row | Structure (SMILES) | effect of the pan-αV integrin antagonist on AAV transduction efficiency, mouse primary myotubes [1] | effect of the pan-αV integrin antagonist on AAV transduction efficiency, human primary myotubes [2]
1 | CC(C)(C)c1cc(Br)cc([C@H](CC(=O)O)NC(=O)CNC(=O)c2cc(O)cc(NC3=NCC(O)CN3)c2)c1 (stereo partly shown) [CWHM-12] | impeded MyoAAV 1A transduction in a dose-dependent manner | impeded MyoAAV 1A transduction in a dose-dependent manner
2 | COc1ccc(S(=O)(=O)N[C@@H](CNc2nc(C)nc(N3CCC(c4ccc5c(n4)NCCC5)CC3)c2C)C(=O)O)cc1 [GLPG-0187] | impeded MyoAAV 1A transduction in a dose-dependent manner | dose-dependent decrease in the transduction efficiency of EMyoAAV; also recorded: impeded MyoAAV 1A transduction in a dose-dependent manner; also recorded: dose-dependent decrease in the transduction efficiency of MyoAAV 2A; also recorded: dose-dependent decrease in transduction for all the 4 variants
